Reference: patent publication US8563730B2, “Pyrazole and fused pyrazole glucokinase activators” (Takeda San Diego, Inc., priority 2008, dated 2013)

Target: T1, GK (glucokinase, residues 12-465) (Homo sapiens, UniProt P35557)
T1 construct: I.D. No. 1 corresponds to residues 12-465 of glucokinase; made in house; host or cells: DH10b-T1r E. coli
T1 sequence (P35557 with tags, fused parts or gaps isoform P35557-2): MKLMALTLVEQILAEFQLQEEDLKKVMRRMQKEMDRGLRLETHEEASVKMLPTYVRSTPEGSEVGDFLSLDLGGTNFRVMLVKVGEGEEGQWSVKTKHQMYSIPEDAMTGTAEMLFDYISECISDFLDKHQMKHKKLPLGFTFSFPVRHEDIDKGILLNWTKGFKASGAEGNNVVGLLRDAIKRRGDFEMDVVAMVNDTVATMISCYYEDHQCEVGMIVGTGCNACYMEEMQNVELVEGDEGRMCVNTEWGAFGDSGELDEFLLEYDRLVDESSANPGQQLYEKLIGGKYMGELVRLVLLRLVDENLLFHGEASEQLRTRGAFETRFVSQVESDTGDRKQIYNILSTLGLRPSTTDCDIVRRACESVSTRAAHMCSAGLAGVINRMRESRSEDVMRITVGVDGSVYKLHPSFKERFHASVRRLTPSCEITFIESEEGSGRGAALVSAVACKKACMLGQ
Assay: enzymatic glucokinase activity assay (ATP consumption, KinaseGlo luminescence)
Format: biochemical
Settings: 5 μM ATP, 5 mM Glucose, reported as bins; for EC50: Kact = concentration that displays 50% of the maximal increase in GK activity, 60 min, room temperature, read-out: pKact; for Emax: calculated maximal gain in GK enzyme activity at a saturating concentration of the compound, read-out: % ACTmax
How it was run: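 E. coli-expressed recombinant GK purified by two anion-exchange steps. Reaction in 25 mM Hepes pH 7.2, 10 mM MgCl2, 1 mM DTT, 5 μM ATP, 5 mM glucose, 2% DMSO, 60 min at room temperature. ATP consumption quantified by KinaseGlo luminescence; pKact and % ACTmax derived by non-linear curve fitting.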

Structure (SMILES)	EC50 [µM]	Emax [%]
COc1ccc2c(cnn2C(CC2CCOCC2)C(=O)Nc2cnccn2)c1S(=O)(=O)C1CC1 (stereo not drawn) [Compound 91, 2-(4-(cyclopropylsulfonyl)-5-methoxy-1H-indazol-1-yl)-N-(pyrazin-2-yl)-3-(tetrahydro-2H-pyran-4-yl)propanamide]	0.398 to 1.26	101 to 105
N#Cc1cnc(NC(=O)[C@H](CC2CCOCC2)n2ncc3c(S(=O)(=O)C4CC4)cccc32)s1 [Compound 136, (S)-N-(5-cyanothiazol-2-yl)-2-(4-(cyclopropylsulfonyl)-1H-indazol-1-yl)-3-(tetrahydro-2H-pyran-4-yl)propanamide]	0.398 to 1.26	≥ 111
Cn1ccc(NC(=O)[C@@H](CC2CCOCC2)n2ncc3c(S(=O)(=O)C4CC4)cncc32)n1 [Compound 160, (R)-2-(4-(cyclopropylsulfonyl)-1H-pyrazolo[3,4-c]pyridin-1-yl)-N-(1-methyl-1H-pyrazol-3-yl)-3-(tetrahydro-2H-pyran-4-yl)propanamide]	3.98 to 12.6	90 to 100
CCn1ccc(NC(=O)C(CC2CCOCC2)n2ncc3c(S(=O)(=O)C4CC4)c(F)ccc32)n1 (stereo not drawn) [Compound 155, 2-(4-(cyclopropylsulfonyl)-5-fluoro-1H-indazol-1-yl)-N-(1-ethyl-1H-pyrazol-3-yl)-3-(tetrahydro-2H-pyran-4-yl)propanamide]	≤ 0.316	106 to 110
O=C(Nc1ncc(F)s1)[C@H](CC1CCCC1)n1cc(S(=O)(=O)C2CC2)cn1 [Compound 36, (S)-3-cyclopentyl-2-(4-(cyclopropylsulfonyl)-1H-pyrazol-1-yl)-N-(5-fluorothiazol-2-yl)propanamide]	1.58 to 3.16	≥ 111
Cn1ccc(NC(=O)[C@@H](CC2CCOCC2)n2ncc3c(S(=O)(=O)C4CC4)c(F)ccc32)n1 [Compound 166, (R)-2-(4-(cyclopropylsulfonyl)-5-fluoro-1H-indazol-1-yl)-N-(1-methyl-1H-pyrazol-3-yl)-3-(tetrahydro-2H-pyran-4-yl)propanamide]	3.98 to 12.6	90 to 100
N#Cc1ccc(NC(=O)C(CC2CCOCC2)n2ncc3c(S(=O)(=O)C4CC4)cccc32)nc1 (stereo not drawn) [Compound 135, N-(5-cyanopyridin-2-yl)-2-(4-(cyclopropylsulfonyl)-1H-indazol-1-yl)-3-(tetrahydro-2H-pyran-4-yl)propanamide]	0.398 to 1.26	106 to 110
O=C(Nc1ncc(F)s1)[C@@H](CC1CCOCC1)n1ncc2c(S(=O)(=O)C3CC3)cc(O)cc21 [Compound 77, (R)-2-(4-(cyclopropylsulfonyl)-6-hydroxy-1H-indazol-1-yl)-N-(5-fluorothiazol-2-yl)-3-(tetrahydro-2H-pyran-4-yl)propanamide]	≥ 15.8	101 to 105
O=C(Nc1cnccn1)C(CC1CCOCC1)n1ncc2c(S(=O)(=O)C3CC3)ccnc21 (stereo not drawn) [Compound 97, 2-(4-(cyclopropylsulfonyl)-1H-pyrazolo[3,4-b]pyridin-1-yl)-N-(pyrazin-2-yl)-3-(tetrahydro-2H-pyran-4-yl)propanamide]	0.398 to 1.26	106 to 110
O=C(Nc1cnccn1)[C@@H](CC1CCOCC1)n1ncc2c(S(=O)(=O)C3CC3)ccnc21 [Compound 161, (R)-2-(4-(cyclopropylsulfonyl)-1H-pyrazolo[3,4-b]pyridin-1-yl)-N-(pyrazin-2-yl)-3-(tetrahydro-2H-pyran-4-yl)propanamide]	≥ 15.8	≤ 90
O=C(Nc1ncc(Cl)s1)[C@@H](CC1CCOCC1)n1ncc2cc(S(=O)(=O)C3CC3)ccc21 [Compound 47, (R)-N-(5-chlorothiazol-2-yl)-2-(5-(cyclopropylsulfonyl)-1H-indazol-1-yl)-3-(tetrahydro-2H-pyran-4-yl)propanamide]	3.98 to 12.6	≥ 111
O=C(Nc1ncc(F)s1)[C@@H](CC1CCOCC1)n1ncc2c(S(=O)(=O)C3CC3)cc(Cl)cc21 [Compound 145, (R)-2-(6-chloro-4-(cyclopropylsulfonyl)-1H-indazol-1-yl)-N-(5-fluorothiazol-2-yl)-3-(tetrahydro-2H-pyran-4-yl)propanamide]	3.98 to 12.6	≤ 90
